From patent publication US9302999B2, “Substituted triazoles as herbicides” (E. I. DU PONT DE NEMOURS AND COMPANY, priority 2012, dated 2016)

Assays:
Assay type in all cases: in vivo
[1] = system: woolly cupgrass (Eriochloa villosa); assay: Test C pre-/postemergence: woolly cupgrass
Outline: (§1)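 Visual injury scored 0–100 (100 = complete control) against untreated controls after 13–15 greenhouse days. Surfactant-containing solvent formulations applied either to soil after sowing (loam/sand) or over 1- to 4-leaf plants, 2–18 cm tall.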

[2] = system: common (oilseed) sunflower (Helianthus annuus); assay: Test C pre-/postemergence: sunflower; conditions: Preemergence
Outline: as §1

[3] = system: barley (winter barley, Hordeum vulgare); assay: Test C postemergence: barley
Outline: (§2)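 Plants at the 1- to 4-leaf stage (2 to 18 cm tall), grown in pots of peat moss/vermiculite planting medium, received postemergence applications of the formulated test chemicals. After 13 to 15 days in a greenhouse, injury was scored visually versus controls from 0 (no effect) to 100 (complete control).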

[4] = system: deadnettle (henbit deadnettle, Lamium amplexicaule); assay: Test C postemergence: deadnettle
Outline: as §2

[5] = system: bluegrass (annual bluegrass, Poa annua); assay: Test D pre-/postemergence: bluegrass
Outline: (§3)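 Scores run from 0 (no effect) to 100 (complete control), assigned by visual comparison with controls after 14 to 21 days in a controlled environment. Both preemergence application to silt loam and postemergence application to 1- to 4-leaf plants were tested.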

[6] = system: chickweed (common chickweed, Stellaria media); assay: Test D pre-/postemergence: chickweed
Outline: as §3

[7] = system: deadnettle (henbit deadnettle, Lamium amplexicaule); assay: Test D pre-/postemergence: deadnettle
Outline: as §3

[8] = system: oilseed rape (Brassica napus); assay: Test D pre-/postemergence: oilseed rape
Outline: as §3

[9] = system: speedwell (bird's-eye speedwell, Veronica persica); assay: Test D pre-/postemergence: speedwell; conditions: Postemergence; for Plant response rating, Speedwell: scale 0 to 100
Outline: as §3

[10] = system: barley, winter (winter barley, Hordeum vulgare); assay: Test D pre-/postemergence: barley, winter
Outline: as §3

[11] = Postemergence, 31 g ai/ha, scale 0 to 100 (0 no effect, 100 complete control)
[12] = Postemergence, 62 g ai/ha, scale 0 to 100 (0 no effect, 100 complete control)
[13] = Postemergence, 125 g ai/ha, scale 0 to 100, 0 no effect, 100 complete control
[14] = Postemergence, 250 g ai/ha, scale 0 to 100
[15] = Preemergence, 31 g ai/ha, scale of 0 to 100, 0 is no effect, 100 is complete control
[16] = Preemergence, 62 g ai/ha, scale of 0 to 100, 0 is no effect, 100 is complete control
[17] = Preemergence, 125 g ai/ha, scale 0 to 100, 0 no effect, 100 complete control
[18] = Preemergence, 250 g ai/ha, scale 0 to 100, 0 no effect, 100 complete control
[19] = 31 g ai/ha, scale of 0 to 100, 0 is no effect, 100 is complete control
[20] = 62 g ai/ha, scale of 0 to 100, 0 is no effect, 100 is complete control
[21] = 125 g ai/ha, scale 0 to 100, 0 no effect, 100 complete control
[22] = 250 g ai/ha, scale 0 to 100, 0 no effect, 100 complete control
[23] = 31 g ai/ha, scale 0 to 100 (0 no effect, 100 complete control)
[24] = 62 g ai/ha, scale 0 to 100 (0 no effect, 100 complete control)
[25] = Postemergence, 8 g ai/ha, scale 0 to 100
[26] = Postemergence, 16 g ai/ha, scale 0 to 100
[27] = Postemergence, 250 g ai/ha, scale 0 to 100 (0 no effect, 100 complete control)
[28] = Preemergence, 16 g ai/ha, scale 0 to 100 (0 no effect, 100 complete control)
[29] = Preemergence, 31 g ai/ha, scale 0 to 100 (0 no effect, 100 complete control)
[30] = Preemergence, 62 g ai/ha, scale 0 to 100
[31] = Preemergence, 125 g ai/ha, scale 0 to 100
[32] = Preemergence, 250 g ai/ha, scale 0 to 100

## Cc1nn(-c2ccc(F)c(F)c2)nc1Oc1ccnc(C(F)(F)F)c1 [Compound 145]
[1]; [11]
  Plant response rating, Cupgrass, Woolly: 20
[1]; [12]
  Plant response rating, Cupgrass, Woolly: 25
[1]; [13]
  Plant response rating, Cupgrass, Woolly: 40
[1]; [14]
  Plant response rating, Cupgrass, Woolly: 75
[1]; [15]
  Plant response rating, Cupgrass, Woolly: 55
[1]; [16]
  Plant response rating, Cupgrass, Woolly: 90
[1]; [17]
  Plant response rating, Cupgrass, Woolly: 95
[1]; [18]
  Plant response rating, Cupgrass, Woolly: 98
[2]; [19]
  Plant response rating, Sunflower: 0
[2]; [20]
  Plant response rating, Sunflower: 5
[2]; [21]
  Plant response rating, Sunflower: 20
[2]; [22]
  Plant response rating, Sunflower: 25
[3]; [23]
  Plant response rating, Barley: 15
[3]; [24]
  Plant response rating, Barley: 20
[3]; [21]
  Plant response rating, Barley: 35
[3]; 250 g ai/ha, scale 0 to 100
  Plant response rating, Barley: 45
[4]; [23]
  Plant response rating, Deadnettle: 100
[4]; [24]
  Plant response rating, Deadnettle: 100
[4]; [21]
  Plant response rating, Deadnettle: 100
[4]; 250 g ai/ha, scale 0 to 100
  Plant response rating, Deadnettle: 100
[5]; [11]
  Plant response rating: Bluegrass: 20
[5]; [12]
  Plant response rating: Bluegrass: 25
[5]; [13]
  Plant response rating: Bluegrass: 40
[5]; [25]
  Plant response rating, Bluegrass: 0
[5]; [26]
  Plant response rating, Bluegrass: 0
[6]; [11]
  Plant response rating: Chickweed: 60
[6]; [12]
  Plant response rating: Chickweed: 80
[6]; [13]
  Plant response rating: Chickweed: 90
[6]; [25]
  Plant response rating, Chickweed: 40
[6]; [26]
  Plant response rating, Chickweed: 75
[7]; [11]
  Plant response rating: Deadnettle: 70
[7]; [12]
  Plant response rating: Deadnettle: 90
[7]; [13]
  Plant response rating: Deadnettle: 100
[7]; [25]
  Plant response rating, Deadnettle: 0
[7]; [26]
  Plant response rating, Deadnettle: 50
[8]; [11]
  Plant response rating: Oilseed Rape: 50
[8]; [12]
  Plant response rating: Oilseed Rape: 70
[8]; [13]
  Plant response rating: Oilseed Rape: 100
[8]; [25]
  Plant response rating, Oilseed Rape: 0
[8]; [26]
  Plant response rating, Oilseed Rape: 50
[9]; [23]
  Plant response rating: Speedwell: 70
[9]; [24]
  Plant response rating: Speedwell: 85
[9]; [21]
  Plant response rating: Speedwell: 100
[9]; 8 g ai/ha
  Plant response rating, Speedwell: 50
[9]; 16 g ai/ha
  Plant response rating, Speedwell: 55
[10]; [11]
  Plant response rating: Barley, Winter: 5
[10]; [12]
  Plant response rating: Barley, Winter: 10
[10]; [13]
  Plant response rating: Barley, Winter: 20
[10]; [25]
  Plant response rating, Barley, Winter: 0
[10]; [26]
  Plant response rating, Barley, Winter: 5

## Cc1nn(-c2ccc(F)cc2)nc1Oc1ccnc(C(F)(F)F)c1 [Compound 129, 4-[[2-(4-fluorophenyl)-5-methyl-2H-1,2,3-triazol-4-yl]oxy]-2-(trifluoromethyl)pyridine]
[1]; [11]
  Plant response rating, Cupgrass, Woolly: 35
[1]; [12]
  Plant response rating, Cupgrass, Woolly: 65
[1]; [13]
  Plant response rating, Cupgrass, Woolly: 65
[1]; [14]
  Plant response rating, Cupgrass, Woolly: 70
[1]; [15]
  Plant response rating, Cupgrass, Woolly: 80
[1]; [16]
  Plant response rating, Cupgrass, Woolly: 95
[1]; [17]
  Plant response rating, Cupgrass, Woolly: 98
[1]; [18]
  Plant response rating, Cupgrass, Woolly: 98
[2]; [19]
  Plant response rating, Sunflower: 0
[2]; [20]
  Plant response rating, Sunflower: 0
[2]; [21]
  Plant response rating, Sunflower: 0
[2]; [22]
  Plant response rating, Sunflower: 0
[3]; [23]
  Plant response rating, Barley: 30
[3]; [24]
  Plant response rating, Barley: 35
[3]; [21]
  Plant response rating, Barley: 45
[3]; 250 g ai/ha, scale 0 to 100
  Plant response rating, Barley: 50
[4]; [23]
  Plant response rating, Deadnettle: 100
[4]; [24]
  Plant response rating, Deadnettle: 100
[4]; [21]
  Plant response rating, Deadnettle: 100
[4]; 250 g ai/ha, scale 0 to 100
  Plant response rating, Deadnettle: 100
[5]; [11]
  Plant response rating: Bluegrass: 10
[5]; [12]
  Plant response rating: Bluegrass: 20
[5]; [13]
  Plant response rating: Bluegrass: 60
[5]; [27]
  Plant response rating: Bluegrass: 70
[5]; [26]
  Plant response rating, Bluegrass: 10
[5]; [28]
  Plant response rating, Bluegrass: 0
[5]; [29]
  Plant response rating, Bluegrass: 0
[5]; [30]
  Plant response rating, Bluegrass: 85
[5]; [31]
  Plant response rating, Bluegrass: 100
[5]; [32]
  Plant response rating, Bluegrass: 100
[6]; [11]
  Plant response rating: Chickweed: 90
[6]; [12]
  Plant response rating: Chickweed: 100
[6]; [13]
  Plant response rating: Chickweed: 100
[6]; [27]
  Plant response rating: Chickweed: 100
[6]; [26]
  Plant response rating, Chickweed: 75
[6]; [28]
  Plant response rating, Chickweed: 0
[6]; [29]
  Plant response rating, Chickweed: 100
[6]; [30]
  Plant response rating, Chickweed: 100
[6]; [31]
  Plant response rating, Chickweed: 100
[6]; [32]
  Plant response rating, Chickweed: 100
[7]; [11]
  Plant response rating: Deadnettle: 75
[7]; [12]
  Plant response rating: Deadnettle: 80
[7]; [13]
  Plant response rating: Deadnettle: 98
[7]; [27]
  Plant response rating: Deadnettle: 100
[7]; [26]
  Plant response rating, Deadnettle: 60
[7]; [28]
  Plant response rating, Deadnettle: 0
[7]; [29]
  Plant response rating, Deadnettle: 10
[7]; [30]
  Plant response rating, Deadnettle: 100
[7]; [31]
  Plant response rating, Deadnettle: 100
[7]; [32]
  Plant response rating, Deadnettle: 100
[8]; [11]
  Plant response rating: Oilseed Rape: 80
[8]; [12]
  Plant response rating: Oilseed Rape: 95
[8]; [13]
  Plant response rating: Oilseed Rape: 100
[8]; [27]
  Plant response rating: Oilseed Rape: 100
[8]; [26]
  Plant response rating, Oilseed Rape: 80
[8]; [28]
  Plant response rating, Oilseed Rape: 0
[8]; [29]
  Plant response rating, Oilseed Rape: 0
[8]; [30]
  Plant response rating, Oilseed Rape: 10
[8]; [31]
  Plant response rating, Oilseed Rape: 30
[8]; [32]
  Plant response rating, Oilseed Rape: 60
[9]; [23]
  Plant response rating: Speedwell: 100
[9]; [24]
  Plant response rating: Speedwell: 100
[9]; [21]
  Plant response rating: Speedwell: 100
[9]; 250 g ai/ha, scale 0 to 100 (0 no effect, 100 complete control)
  Plant response rating: Speedwell: 100
[9]; 16 g ai/ha
  Plant response rating, Speedwell: 100
[10]; [11]
  Plant response rating: Barley, Winter: 5
[10]; [12]
  Plant response rating: Barley, Winter: 10
[10]; [13]
  Plant response rating: Barley, Winter: 15
[10]; [27]
  Plant response rating: Barley, Winter: 30
[10]; [26]
  Plant response rating, Barley, Winter: 5
[10]; [28]
  Plant response rating, Barley, Winter: 0
[10]; [29]
  Plant response rating, Barley, Winter: 0
[10]; [30]
  Plant response rating, Barley, Winter: 0
[10]; [31]
  Plant response rating, Barley, Winter: 10
[10]; [32]
  Plant response rating, Barley, Winter: 15
